From patent publication US9573966B2, “Anti-cancer activity of novel bicyclic heterocycles” (Katholieke Universiteit Leuven, K.U.Leuven R&D, priority 2010, dated 2017)
pIC50: −log10 of the molar value.

Tests used:
HL-60 cells = test: Inhibition of HL-60 leukemic cell line proliferation (WST-1); format: cell-based, human; conditions: Homo sapiens, 48 h; cytotoxicity on HL-60 cells, two days incubation, WST-1 read-out
Procedure: (§1) HL-60 cell line, a human promyelocytic leukemia (ATCC; CCL-240) cell line, was grown in RPMI-1640 medium (Lonza, Belgium) supplemented with 10% fetal calf serum (Hyclone, US) and antibiotics. Exponential growing phase cells were seed in flat bottom 96-well microplates (TTP, Switzerland) at 50000 cells per well in 220 μl of medium with compounds (in different concentrations) and incubated for two days at 37° C., 5% CO2. After incubation, 100 μl of supernatant were removed and 10 μl of WST-1 (Roche, Switzerland) were added. After 2 hour incubation at 37° C., 5% CO2, optical densities were measured at 450 nm. Proliferation is calculated with respect of control points (no compound and treatment with Triton X100 to have maximum and minimum proliferation data). The IC50 was determined from a graph with at least four points, each derived from the mean of at least 2 experiments. […] The results are shown in Table 2 for a number of compounds.

HSB-2 cells = test: Inhibition of HSB-2 leukemic cell line proliferation (WST-1); format: cell-based, human; conditions: Homo sapiens, HSB2, 48 h, cytotoxicity on HSB-2 cells, two days incubation, WST-1 read-out
Procedure: as §1, with “HSB2 cell” for “HL-60 cell”, “human acute lymphoblastic” for “human promyelocytic”, “(ATCC; CCL-120.1)” for “(ATCC; CCL-240)”, “Table 1” for “Table 2”

SMILES	pIC50 (HL-60 cells)	pIC50 (HSB-2 cells)
C[S+]([O-])c1nc2c(N3CCN(C(=O)COc4ccc(Cl)cc4)CC3)nc(N)nc2s1 (stereo not drawn) [Example 126, 5-amino-7-[4-(4-chlorophenoxyacetyl)piperazin-1-yl]-2-methylsulfinyl-thiazolo[5,4-d]pyrimidine]	5.42	5.26
Nc1nc(N2CCN(C(=O)COc3ccc(Cl)cc3)CC2)c2nc(C3CC3)oc2n1 [Example 185, 5-amino-2-cyclopropyl-7-[4-(4-chlorophenoxyacetyl)piperazin-1-yl]-oxazolo[5,4-d]pyrimidine]	< 5.00	< 5.00
Nc1nc(N2CCN(C(=O)COc3ccc(Cl)cc3)CC2)c2nc(CCc3ccc(F)cc3)oc2n1 [Example 172, 1-(4-(5-amino-2-(4-fluorophenethyl)oxazolo[5,4-d]pyrimidin-7-yl)piperazin-1-yl)-2-(4-chlorophenoxy)ethanone]	< 5.00	< 5.00
Nc1nc(N2CCN(C(=O)COc3ccc(Cl)cc3)CC2)c2nc(-c3cccc(Cl)c3)[nH]c2n1 [Example 393, 1-(4-(2-amino-8-(3-chlorophenyl)-9H-purin-6-yl)piperazin-1-yl)-2-(4-chlorophenoxy)ethanone]	5.04	5.86
Nc1nc(N2CCN(C(=O)COc3ccc(Cl)cc3)CC2)c2ccsc2n1 [Example 351, 1-(4-(2-aminothieno[2,3-d]pyrimidin-4-yl)piperazin-1-yl)-2-(4-chlorophenoxy)ethanone]	5.29	5.77
Nc1nc(N2CCN(C(=O)COc3ccc(OC(F)(F)F)cc3)CC2)c2nc(-c3cccnc3)sc2n1 [Example 273, 1-(4-(5-amino-2-(pyridin-3-yl)thiazolo[5,4-d]pyrimidin-7-yl)piperazin-1-yl)-2-(4-trifluoromethoxyphenoxy)ethanone]	5.32	6.09
Nc1nc(N2CCN(C(=O)COc3ccc(Cl)cc3)CC2)c2nc(SCc3ccccc3)[nH]c2n1 [Example 426, 1-(4-(2-amino-8-(benzylthio)-9H-purin-6-yl)piperazin-1-yl)-2-(4-chlorophenoxy)ethanone]	< 5.00	< 5.00
COc1ccc(OCC(=O)N2CCN(c3nc(N)nc4sc(-c5ccc(Cl)cc5)nc34)CC2)cc1 [Example 270, 1-(4-(5-amino-2-(4-chlorophenyl)thiazolo[5,4-d]pyrimidin-7-yl)piperazin-1-yl)-2-(4-methoxyphenoxy)ethanone]	6.35	6.74
Nc1nc(N2CCN(C(=O)COc3ccc(Cl)cc3)CC2)c2nc(CCc3cccs3)sc2n1 [Example 154, 5-amino-2-(2-thiophen-2-ylethyl)-7-(4-[2-(4-chloro-phenoxy)acetyl]piperazin-1-yl)thiazolo[5,4-d]pyrimidine]	5.19	5.39
Cc1ccc(-c2nc3c(N4CCN(C(=O)COc5ccc(Cl)cc5)CC4)nc(N)nc3[nH]2)cc1 [Example 396, 1-(4-(2-amino-8-p-tolyl-9H-purin-6-yl)piperazin-1-yl)-2-(4-chlorophenoxy)ethanone]	5.30	6.31
Cc1cccc(NC(=O)N2CCCN(c3nc(N)nc4[nH]c(-c5ccc(F)cc5)nc34)CC2)c1 [Example 422, 4-(2-amino-8-(4-fluorophenyl)-9H-purin-6-yl)-N-m-tolyl-1,4-diazepane-1-carboxamide]	< 5.00	< 5.00
Cc1nc2c(N3CCN(C(=O)COc4ccc(Cl)cc4)CC3)nc(N)nc2[nH]1 [Example 400, 1-(4-(2-amino-8-methyl-9H-purin-6-yl)piperazin-1-yl)-2-(4-chlorophenoxy)ethanone]	5.53	5.69
Nc1nc(N2CCN(C(=O)Nc3ccc(Cl)cc3)CC2)c2nc(-c3cccnc3)sc2n1 [Example 277, 4-(5-amino-2-(pyridin-3-yl)thiazolo[5,4-d]pyrimidin-7-yl)-N-(4-chlorophenyl)piperazine-1-carboxamide]	6.08	6.13
COc1ccc(OCC(=O)N2CCN(c3nc(N)nc4sc(-c5ccccc5)cc34)CC2)cc1 [Example 369, 1-(4-(2-amino-6-phenylthieno[2,3-d]pyrimidin-4-yl)piperazin-1-yl)-2-(4-methoxyphenoxy)ethanone]	5.22	5.23
Nc1nc(N2CCN(C(=O)COc3ccccc3)CC2)c2nc(-c3ccc(F)cc3)[nH]c2n1 [Example 401, 1-(4-(2-amino-8-(4-fluorophenyl)-9H-purin-6-yl)piperazin-1-yl)-2-phenoxyethanone]	< 5.00	< 5.00
COc1ccc(-c2nc3c(N4CCN(C(=O)COc5ccc(Cl)cc5)CC4)nc(N)nc3[nH]2)cc1OC [Example 390, 1-(4-(2-amino-8-(3,4-dimethoxyphenyl)-9H-purin-6-yl)piperazin-1-yl)-2-(4-chlorophenoxy)ethanone]	< 5.00	6.35
COc1ccc(CNC(=O)N2CCN(c3nc(N)nc4sc(-c5cccnc5)nc34)CC2)cc1 [Example 278, 4-(5-amino-2-(pyridin-3-yl)thiazolo[5,4-d]pyrimidin-7-yl)-N-(4-methoxybenzyl)piperazine-1-carboxamide]	6.17	6.12
Nc1nc(N2CCN(C(=O)COc3ccc(Cl)cc3)CC2)c2nc(CCc3ccccc3)sc2n1 [Example 118, 5-amino-7-[4-(4-chlorophenoxyacetyl)piperazin-1-yl]-2-(2-phenylethyl)thiazolo[5,4-d]pyrimidine]	5.00	5.34
N#Cc1ccc(NC(=O)N2CCN(c3nc(N)nc4sc(Cc5ccc(F)cc5)nc34)CC2)cc1 [Example 232, 4-(5-amino-2-(4-fluorobenzyl)thiazolo[5,4-d]pyrimidin-7-yl)-N-(4-cyanophenyl)piperazine-1-carboxamide]	5.00	5.16
Cn1c(-c2ccc(F)cc2)nc2c(N3CCN(C(=O)COc4ccc(Cl)cc4)CC3)nc(N)nc21 [Example 430, 1-(4-(2-amino-8-(4-fluorophenyl)-9-methyl-9H-purin-6-yl)piperazin-1-yl)-2-(4-chlorophenoxy)ethanone]	6.00	5.46
CCCSc1nc2c(N3CCN(C(=O)COc4ccc(Cl)cc4)CC3)nc(N)nc2[nH]1 [Example 425, 1-(4-(2-amino-8-(propylthio)-9H-purin-6-yl)piperazin-1-yl)-2-(4-chlorophenoxy)ethanone]	5.05	5.34
N#Cc1ccc(NC(=O)N2CCN(c3nc(N)nc4sc(-c5ccc(F)cc5)nc34)CC2)cc1 [Example 216, 4-(5-amino-2-(4-fluorophenyl)thiazolo[5,4-d]pyrimidin-7-yl)-N-(4-cyanophenyl)piperazine-1-carboxamide]	5.19	5.31
Nc1nc(N2CCN(C(=O)COc3cccc([N+](=O)[O-])c3)CC2)c2nc(CCc3ccc(F)cc3)sc2n1 [Example 131, 5-amino-2-[2-(4-fluorophenyl)ethyl]-7-(4-[2-(3-nitrophenoxy)acetyl]piperazin-1-yl)-thiazolo[5,4-d]pyrimidine]	< 5.00	< 5.00
Nc1nc(N2CCN(C(=O)COc3ccc(Cl)cc3)CC2)c2cc(-c3ccc(F)cc3)sc2n1 [Example 326, 1-(4-(2-amino-6-(4-fluorophenyl)thieno[2,3-d]pyrimidin-4-yl)piperazin-1-yl)-2-(4-chlorophenoxy)ethanone]	< 5.00	5.05
Cc1cccc(NC(=O)N2CCN(c3nc(N)nc4oc(CCc5ccc(F)cc5)nc34)CC2)c1 [Example 196, 5-amino-2-[2-(4-fluorophenyl)ethyl]-7-(4-m-tolylcarbamoylpiperazin-1-yl)-oxazolo[5,4-d]pyrimidine]	< 5.00	< 5.00
Nc1nc(N2CCN(C(=O)COc3cccc(Cl)c3)CC2)c2nc(-c3ccc(F)cc3)sc2n1 [Example 214, 1-(4-(5-amino-2-(4-fluorophenyl)thiazolo[5,4-d]pyrimidin-7-yl)piperazin-1-yl)-2-(3-chlorophenoxy)ethanone]	5.22	6.14
Nc1nc(N2CCN(C(=O)COc3ccc(Cl)cc3)CC2)c2nc(C3CC3)[nH]c2n1 [Example 398, 1-(4-(2-amino-8-cyclopropyl-9H-purin-6-yl)piperazin-1-yl)-2-(4-chlorophenoxy)ethanone]	5.22	5.32
Nc1nc(N2CCN(C(=O)COc3ccccc3)CC2)c2nc(-c3ccc(F)cc3)sc2n1 [Example 130, 5-amino-2-(4-fluorophenyl)-7-(4-(2-phenoxyacetyl)-piperazin-1-yl)-thiazolo[5,4-d]pyrimidine]	6.09	6.24
Nc1nc(N2CCN(C(=O)COc3ccc(Cl)cc3)CC2)c2nc(-c3ccc(F)cc3)[nH]c2n1 [Example 389, 1-(4-(2-amino-8-(4-fluorophenyl)-9H-purin-6-yl)piperazin-1-yl)-2-(4-chlorophenoxy)ethanone]	< 5.00	
